Data set [1] is described as follows: Toxicity in rat assessed as motor impairment at 250 microg/kg,IM administrated for 14 consecutive days by rotarod test. To be noted: in vivo, 0.25 mg/kg, dose 250 µg/kg. (The rotarod test checks motor coordination on a turning rod.)
Data set [2] concerns the target Neuronal acetylcholine receptor; alpha4/beta2 (Rattus norvegicus) (UniProt P09483+P12390). Kind of data set: Antagonist activity at rat alpha4beta2 nAChR expressed in acetylcholine-induced Xenopus laevis oocytes assessed as inhibition of acetylcholine-induced current at 100 nM by two electrode voltage-clamp assay. Type of data set: cell-based. To be noted: Oocyte.

Data set [3] is described as follows: Antagonist activity at human alpha9alpha10G152N mutant nAChR expressed in acetylcholine-induced Xenopus laevis oocytes assessed as inhibition of acetylcholine-induced current at 1:1 ratio of protein by two electrode voltage-clamp assay. Type of data set: cell-based. The following applies: Oocyte. (Two-electrode voltage clamp holds a large cell at a set potential and records current.)

The target of data set [4] is Neuronal acetylcholine receptor subunit alpha-7 (Rattus norvegicus) (UniProt Q05941). Kind of data set: Antagonist activity at rat alpha7 nAChR expressed in acetylcholine-induced Xenopus laevis oocytes assessed as inhibition of acetylcholine-induced current at 100 nM by two electrode voltage-clamp assay relative to control. The data set is classed as cell-based. The following applies: Oocyte.
Chain of Neuronal acetylcholine receptor subunit alpha-7 (Rattus norvegicus) (Q05941 whole entry): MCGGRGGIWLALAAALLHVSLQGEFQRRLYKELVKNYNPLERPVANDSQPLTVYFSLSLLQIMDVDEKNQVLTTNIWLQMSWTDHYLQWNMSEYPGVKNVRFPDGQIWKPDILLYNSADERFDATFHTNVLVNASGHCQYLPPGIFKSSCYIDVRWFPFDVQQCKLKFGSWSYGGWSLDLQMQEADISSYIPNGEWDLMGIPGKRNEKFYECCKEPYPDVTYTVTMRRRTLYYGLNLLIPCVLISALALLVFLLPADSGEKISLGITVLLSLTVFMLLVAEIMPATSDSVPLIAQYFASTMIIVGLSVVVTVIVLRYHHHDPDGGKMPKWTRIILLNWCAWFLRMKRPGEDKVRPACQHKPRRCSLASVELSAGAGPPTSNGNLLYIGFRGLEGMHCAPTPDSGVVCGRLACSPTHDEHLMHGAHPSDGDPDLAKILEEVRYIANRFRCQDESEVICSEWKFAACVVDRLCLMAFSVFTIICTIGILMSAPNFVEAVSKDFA

Data set [5] concerns the target T1, Potassium voltage-gated channel subfamily KQT member 3 (Homo sapiens) (UniProt O43525).
T1 sequence (whole entry): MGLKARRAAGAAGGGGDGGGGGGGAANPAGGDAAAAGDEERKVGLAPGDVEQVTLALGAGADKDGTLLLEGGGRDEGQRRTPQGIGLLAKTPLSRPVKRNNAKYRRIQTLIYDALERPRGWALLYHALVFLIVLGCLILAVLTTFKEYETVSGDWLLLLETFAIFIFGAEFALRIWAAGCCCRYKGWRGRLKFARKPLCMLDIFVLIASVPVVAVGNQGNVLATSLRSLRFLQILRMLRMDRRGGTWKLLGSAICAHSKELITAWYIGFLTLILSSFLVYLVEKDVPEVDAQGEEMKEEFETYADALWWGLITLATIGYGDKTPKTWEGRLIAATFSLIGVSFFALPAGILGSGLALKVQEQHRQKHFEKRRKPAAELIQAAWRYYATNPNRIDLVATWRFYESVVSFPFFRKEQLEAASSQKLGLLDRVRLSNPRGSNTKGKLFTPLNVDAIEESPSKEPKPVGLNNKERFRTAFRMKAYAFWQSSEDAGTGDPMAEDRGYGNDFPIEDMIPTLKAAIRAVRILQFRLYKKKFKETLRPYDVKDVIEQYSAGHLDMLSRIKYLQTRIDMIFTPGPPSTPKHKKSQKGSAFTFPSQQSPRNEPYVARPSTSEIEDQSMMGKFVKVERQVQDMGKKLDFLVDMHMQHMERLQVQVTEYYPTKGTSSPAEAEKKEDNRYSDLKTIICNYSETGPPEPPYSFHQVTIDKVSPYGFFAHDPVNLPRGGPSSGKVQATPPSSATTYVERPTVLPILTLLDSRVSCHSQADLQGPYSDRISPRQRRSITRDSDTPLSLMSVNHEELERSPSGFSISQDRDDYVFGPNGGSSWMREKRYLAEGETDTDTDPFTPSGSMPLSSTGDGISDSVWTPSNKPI
In words: Inhibition of KCNQ3 (unknown origin) at 1 uM.

Data set [6] addresses T2, Neuronal acetylcholine receptor subunit alpha-7 (Homo sapiens, UniProt P36544). In words: Antagonist activity at human alpha7 nAChR expressed in acetylcholine-induced Xenopus laevis oocytes assessed as inhibition of acetylcholine-induced current by two electrode voltage-clamp assay. Type of data set: cell-based, Oocyte.
For data set [7], the target named is Sodium channel protein type 9 subunit alpha (Homo sapiens) (UniProt Q15858). In words: Inhibition of Nav1.7 (unknown origin) at 1 uM.
Chain of Sodium channel protein type 9 subunit alpha (Homo sapiens) (Q15858 whole entry, looked up): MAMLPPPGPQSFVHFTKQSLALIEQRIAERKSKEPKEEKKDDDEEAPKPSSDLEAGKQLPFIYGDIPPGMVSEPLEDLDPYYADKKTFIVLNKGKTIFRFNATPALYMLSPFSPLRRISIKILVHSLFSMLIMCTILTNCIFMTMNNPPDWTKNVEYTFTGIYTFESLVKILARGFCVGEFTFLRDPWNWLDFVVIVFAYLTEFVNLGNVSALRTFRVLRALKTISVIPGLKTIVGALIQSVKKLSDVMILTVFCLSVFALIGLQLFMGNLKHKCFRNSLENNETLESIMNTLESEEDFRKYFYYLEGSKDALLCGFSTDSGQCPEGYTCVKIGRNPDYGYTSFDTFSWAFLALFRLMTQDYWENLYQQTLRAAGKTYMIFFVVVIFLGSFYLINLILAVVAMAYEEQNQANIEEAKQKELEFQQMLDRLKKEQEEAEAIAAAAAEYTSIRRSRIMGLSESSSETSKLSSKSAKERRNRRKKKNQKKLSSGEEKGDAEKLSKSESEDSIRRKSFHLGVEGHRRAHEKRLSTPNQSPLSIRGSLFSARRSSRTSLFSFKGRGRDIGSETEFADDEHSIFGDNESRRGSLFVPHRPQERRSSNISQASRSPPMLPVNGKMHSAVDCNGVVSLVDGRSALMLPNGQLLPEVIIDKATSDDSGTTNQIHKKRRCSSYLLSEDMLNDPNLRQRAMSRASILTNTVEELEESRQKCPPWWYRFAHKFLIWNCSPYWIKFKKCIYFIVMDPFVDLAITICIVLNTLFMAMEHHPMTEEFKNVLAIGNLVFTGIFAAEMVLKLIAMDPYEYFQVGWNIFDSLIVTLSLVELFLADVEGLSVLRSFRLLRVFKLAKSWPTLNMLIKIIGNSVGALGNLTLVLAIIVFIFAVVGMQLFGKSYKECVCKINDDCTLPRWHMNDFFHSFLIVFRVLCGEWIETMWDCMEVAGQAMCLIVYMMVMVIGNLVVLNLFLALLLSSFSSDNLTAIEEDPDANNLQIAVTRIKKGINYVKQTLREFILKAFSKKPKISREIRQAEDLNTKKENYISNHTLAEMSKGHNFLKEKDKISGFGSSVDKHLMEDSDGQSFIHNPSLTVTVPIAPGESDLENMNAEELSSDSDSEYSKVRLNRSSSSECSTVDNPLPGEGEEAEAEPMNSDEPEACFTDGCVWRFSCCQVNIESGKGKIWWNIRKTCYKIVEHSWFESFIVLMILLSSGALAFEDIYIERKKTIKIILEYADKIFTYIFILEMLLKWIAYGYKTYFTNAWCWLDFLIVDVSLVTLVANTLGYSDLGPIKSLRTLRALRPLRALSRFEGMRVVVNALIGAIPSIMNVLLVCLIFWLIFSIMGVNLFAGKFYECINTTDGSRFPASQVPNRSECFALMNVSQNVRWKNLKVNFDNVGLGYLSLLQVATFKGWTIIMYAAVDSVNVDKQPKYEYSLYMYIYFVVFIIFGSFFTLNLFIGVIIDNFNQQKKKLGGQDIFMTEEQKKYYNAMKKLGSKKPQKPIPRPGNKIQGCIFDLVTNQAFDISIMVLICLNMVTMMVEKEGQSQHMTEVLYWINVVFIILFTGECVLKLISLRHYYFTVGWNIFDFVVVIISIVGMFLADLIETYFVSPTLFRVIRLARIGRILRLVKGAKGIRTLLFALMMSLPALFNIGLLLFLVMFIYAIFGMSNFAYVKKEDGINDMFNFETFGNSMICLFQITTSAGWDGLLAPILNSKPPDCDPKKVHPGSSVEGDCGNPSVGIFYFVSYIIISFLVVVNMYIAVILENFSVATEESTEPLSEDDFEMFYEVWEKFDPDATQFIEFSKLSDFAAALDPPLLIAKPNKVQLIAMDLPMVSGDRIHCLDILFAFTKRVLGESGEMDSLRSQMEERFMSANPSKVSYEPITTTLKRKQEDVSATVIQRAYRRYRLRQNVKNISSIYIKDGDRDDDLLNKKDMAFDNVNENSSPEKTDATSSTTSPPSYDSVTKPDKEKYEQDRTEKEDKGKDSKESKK
Data set [8] has as its target T3, Neuronal acetylcholine receptor; alpha9/alpha10 (Homo sapiens) (UniProt Q9UGM1+Q9GZZ6). Kind of data set: Antagonist activity at human alpha9alpha10 nAChR expressed in acetylcholine-induced Xenopus laevis oocytes assessed as inhibition of acetylcholine-induced current at 30 nM at -80 mV holding potential by two electrode voltage-clamp assay. Type of data set: cell-based. The following applies: Oocyte, filed as antagonist.

For data set [9], the system named is Rattus norvegicus. Kind of data set: Analgesic activity in Chronic constriction injury rat model assessed as decrease in hyperalgesia at 250 microg/kg,IM administrated every 2 hrs for 14 days. The data set is classed as functional, organism-based. The following applies: dose 250.0 µg/kg, time 14.0 day.
Data set [10] concerns the target Neuronal acetylcholine receptor subunit alpha-7 (Rattus norvegicus) (UniProt Q05941). Kind of data set: Antagonist activity at rat alpha7 nAChR expressed in acetylcholine-induced Xenopus laevis oocytes assessed as inhibition of acetylcholine-induced current at 30 nM by two electrode voltage-clamp assay relative to control. The data set is classed as cell-based. The following applies: Oocyte.

Data set [11] addresses T3, Neuronal acetylcholine receptor; alpha9/alpha10 (Homo sapiens). Kind of data set: Antagonist activity at human alpha9alpha10 nAChR expressed in acetylcholine-induced Xenopus laevis oocytes assessed as inhibition of acetylcholine-induced current at 30 nM at -120 mV holding potential by two electrode voltage-clamp assay. The data set is classed as cell-based. To be noted: Oocyte, filed as antagonist.

Data set [12] deals with T2, Neuronal acetylcholine receptor subunit alpha-7. In words: Antagonist activity at human alpha7 nAChR expressed in acetylcholine-induced Xenopus laevis oocytes assessed as inhibition of acetylcholine-induced current at 30 nM by two electrode voltage-clamp assay. The following applies: Oocyte, filed as antagonist. Type of data set: cell-based.
Data set [13] deals with T4, Voltage-dependent N-type calcium channel subunit alpha-1B (Homo sapiens, UniProt Q00975). In words: Inhibition of human Cav2.2 channel transfected in HEK293T cells assessed as inhibition of Cav2.2-mediated Ba2+ current at 1 uM measured for 3 to 5 days by whole-cell patch clamp assay. Type of data set: cell-based. The following applies: time 3-5 day. For orientation: The patch-clamp technique gives a direct electrical read-out from membranes.

The nature of data set [14]: Antagonist activity at human alpha9N152G mutant alpha10 nAChR expressed in acetylcholine-induced Xenopus laevis oocytes assessed as inhibition of acetylcholine-induced current at 1:1 ratio of protein by two electrode voltage-clamp assay. Type of data set: cell-based. The following applies: Oocyte.
The target of data set [15] is T2, Neuronal acetylcholine receptor subunit alpha-7. In words: Antagonist activity at human alpha7 nAChR expressed in acetylcholine-induced Xenopus laevis oocytes assessed as inhibition of acetylcholine-induced current at 100 nM by two electrode voltage-clamp assay. The data set is classed as cell-based. The following applies: Oocyte, filed as antagonist.
Data set [16] concerns the target Neuronal acetylcholine receptor; alpha3/beta2 (Rattus norvegicus) (UniProt P04757+P12390). In words: Antagonist activity at rat alpha3beta2 nAChR expressed in acetylcholine-induced Xenopus laevis oocytes assessed as inhibition of acetylcholine-induced current at 100 nM by two electrode voltage-clamp assay. The data set is classed as cell-based. The following applies: Oocyte.

Data set [17] addresses Nicotinic acetylcholine receptor alpha9/alpha10 (Rattus norvegicus, UniProt P43144+Q9JLB5). Kind of data set: Antagonist activity at rat wild type alpha9alpha10 nAChR expressed in acetylcholine-induced Xenopus laevis oocytes assessed as inhibition of acetylcholine-induced current at 1:1 ratio of protein by two electrode voltage-clamp assay. The data set is classed as cell-based, Oocyte.

Data set [18] relates to Rattus norvegicus. In words: Analgesic activity in Chronic constriction injury rat model assessed as decrease in hyperalgesia at 0.25 to 25 microg/kg,IM administrated every 2 hrs for 14 days. The data set is classed as functional, organism-based. The following applies: dose 0.25-25 µg/kg, time 14.0 day.
The target in data set [19] is T4, Voltage-dependent N-type calcium channel subunit alpha-1B. Kind of data set: Inhibition of human Cav2.2 channel transfected in HEK293T cells assessed as inhibition of Cav2.2-mediated Ba2+ current measured for 3 to 5 days by whole-cell patch clamp assay. The data set is classed as cell-based.
In data set [20] the test system is Rattus norvegicus. Kind of data set: Analgesic activity in Chronic constriction injury rat model assessed as increase in paw withdrawal latency at 250 microg/kg,IM administration and measured for 0.5 to 48 hrs. Type of data set: functional, organism-based. The following applies: dose 250.0 µg/kg, time 0.5-48 hrs.
Data set [21] concerns Rattus norvegicus. Kind of data set: Analgesic activity in Chronic constriction injury rat model assessed as increase in paw withdrawal threshold at 250 microg/kg,IM administration and measured for 0.5 to 48 hrs. Type of data set: functional, organism-based. The following applies: dose 250.0 µg/kg, time 0.5-48 hrs.
Data set [22] can be described thus: Antagonist activity at human alpha9alpha10G152N mutant nAChR expressed in acetylcholine-induced Xenopus laevis oocytes assessed as inhibition of acetylcholine-induced current at 1:3 ratio of protein by two electrode voltage-clamp assay. To be noted: Oocyte. Type of data set: cell-based.

Structures are written as SMILES. The source made the active and inactive calls.

As usually defined, the inhibition is the share of the control response that was lost under treatment. In general, IC50 refers to the concentration that inhibits the measured activity by half.

T2 sequence (P36544 whole entry): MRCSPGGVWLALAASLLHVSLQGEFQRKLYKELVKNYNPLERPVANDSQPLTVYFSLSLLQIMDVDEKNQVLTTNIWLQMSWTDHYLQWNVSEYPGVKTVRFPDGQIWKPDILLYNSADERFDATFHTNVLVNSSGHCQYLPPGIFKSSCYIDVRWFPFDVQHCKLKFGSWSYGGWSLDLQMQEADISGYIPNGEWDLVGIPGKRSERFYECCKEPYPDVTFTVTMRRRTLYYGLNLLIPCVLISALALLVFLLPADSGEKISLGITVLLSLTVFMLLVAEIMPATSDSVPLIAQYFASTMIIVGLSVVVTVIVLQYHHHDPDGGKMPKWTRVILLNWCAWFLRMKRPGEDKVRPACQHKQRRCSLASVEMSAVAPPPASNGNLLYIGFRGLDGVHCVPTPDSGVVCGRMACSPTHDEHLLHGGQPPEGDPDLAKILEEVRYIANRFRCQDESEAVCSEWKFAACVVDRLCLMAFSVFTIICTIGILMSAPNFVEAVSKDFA
Chain of Nicotinic acetylcholine receptor alpha9/alpha10 (P43144 whole entry): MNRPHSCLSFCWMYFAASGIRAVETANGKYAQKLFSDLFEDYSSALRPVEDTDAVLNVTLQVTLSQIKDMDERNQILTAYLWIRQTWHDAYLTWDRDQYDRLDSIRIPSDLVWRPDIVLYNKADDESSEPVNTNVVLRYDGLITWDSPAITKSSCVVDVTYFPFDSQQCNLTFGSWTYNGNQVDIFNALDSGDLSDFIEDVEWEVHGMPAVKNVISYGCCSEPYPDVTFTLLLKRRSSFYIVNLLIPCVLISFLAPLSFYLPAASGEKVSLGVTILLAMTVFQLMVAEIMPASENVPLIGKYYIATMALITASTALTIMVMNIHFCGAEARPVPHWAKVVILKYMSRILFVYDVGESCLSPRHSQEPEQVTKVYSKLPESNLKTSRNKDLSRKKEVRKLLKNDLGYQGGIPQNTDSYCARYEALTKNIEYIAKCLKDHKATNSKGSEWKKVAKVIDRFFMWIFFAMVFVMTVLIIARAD
Chain of Nicotinic acetylcholine receptor alpha9/alpha10 (Q9JLB5 whole entry): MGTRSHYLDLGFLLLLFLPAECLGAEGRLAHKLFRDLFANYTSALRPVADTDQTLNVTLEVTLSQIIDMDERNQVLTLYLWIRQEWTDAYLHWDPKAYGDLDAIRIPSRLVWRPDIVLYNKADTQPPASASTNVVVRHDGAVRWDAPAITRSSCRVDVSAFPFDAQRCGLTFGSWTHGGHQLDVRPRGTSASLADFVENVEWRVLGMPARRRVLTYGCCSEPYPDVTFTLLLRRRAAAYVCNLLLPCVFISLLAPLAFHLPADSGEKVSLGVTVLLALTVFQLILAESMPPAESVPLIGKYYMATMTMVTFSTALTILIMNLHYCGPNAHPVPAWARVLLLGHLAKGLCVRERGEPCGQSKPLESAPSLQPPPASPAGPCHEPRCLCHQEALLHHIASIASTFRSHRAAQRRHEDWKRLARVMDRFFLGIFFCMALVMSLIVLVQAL

`CC[C@H](C)[C@H](NC(=O)[C@H](CCCNC(=N)N)NC(=O)[C@H](CCCNC(=N)N)NC(=O)[C@H](Cc1ccc(O)cc1)NC(=O)[C@H](CCCNC(=N)N)NC(=O)[C@H](CCCNC(=N)N)NC(=O)[C@H](CCCNC(=N)N)NC(=O)[C@H](CCCNC(=N)N)NC(=O)[C@H](CC(=O)O)NC(=O)[C@H](Cc1ccc(O)cc1)NC(=O)[C@@H]1CCCN1C(=O)[C@H](CO)NC(=O)[C@H](CCCNC(=N)N)NC(=O)[C@H](Cc1ccc(O)cc1)NC(=O)[C@H](CCCNC(=N)N)NC(=O)CN)C(=O)N[C@H](C(=O)N[C@@H](CC(=O)O)C(N)=O)[C@@H](C)O`: in [1], the Activity entry is on record as “Non-Toxic”. For the same compound, the inhibition result in data set [2], in [5], in data set [7], in data set [13] and in data set [16] was “inactive” each time. Moreover, the half-maximal inhibitory concentration (IC50) in data set [3] stood at 25.2 nM; in [6], 43.8 nM; in data set [14], 3.6 nM; in [17] it was 18.3 nM; in data set [19], 4.6 nM; in data set [22], 21 nM. Also, the inhibition in data set [4] amounted to 35%; in data set [10] it was 10%; in data set [12], 40%; in data set [15] it was 80%. Besides, the inhibition entry in data set [8] and in data set [11] was “Active” throughout. In addition, the result in the data set with Rattus norvegicus [9], with Rattus norvegicus [18], in the data set with Rattus norvegicus [20] and in the data set on Rattus norvegicus [21] was Active.
